pEC50, pIC50: −log10 of the molar value. Where “and” joins values, the source holds several entries; their conditions need not be identical. Equal entries are not always repeated. Entries after “also recorded” stand apart in the source; their conditions may differ.
Legend:
membrane-bound rMpAOX [1] = molecular target: T1, membrane-bound rMpAOX (Moniliophthora perniciosa, UniProt A8QJP8); test: Membrane-bound rMpAOX activity with putative activators (O2 uptake, oxygraph; dose-response); type: biochemical; settings: for Increase of membrane-bound rMpAOX oxygen uptake: 1 mM activator; for Fold-change in membrane-bound rMpAOX O2 uptake: 1 mM each, single independent measurements (Fig1a); for pEC50: membrane-bound rMpAOX, 4-parameter sigmoid fit, read-out: EC50 of rMpAOX activation;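 for Fractional velocity, %: 100% is the maximal rate reached in the activator titration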
Description: (§1) E. coli membrane preparation was performed as described with minor modifications. […] The cells were disrupted using two passes at […] through a pre-cooled Constant cell disruption system (Constant Systems Ltd). The lysate was centrifuged for 15 min at 16,000 rcf, and the pelleted unbroken cells and large cell debris were discarded. The supernatant was centrifuged for 90 min at 200,000 rcf to collect the fragmented membranes.
(§2) Respiration rates were recorded before and after the addition of putative AOX activators, such as 5′-ADP, 5′-AMP, 5′-GDP, 5′-GMP, glyoxylate, oxaloacetate, pyruvate or succinate (1 mM each unless stated otherwise). […] Data were acquired with the Multiskan FC Microplate Photometer (ThermoFisher). […] Absorbance readings were taken periodically and a blank reactions (substrate without enzyme) were included in every assay and were used to determine and subtract the autoxidation rate (background). Proteoliposomes were assayed as described for the E. coli membrane fraction except that no KCN was included and 0.5 µL of the prep (~50 ng rMpAOX) were added into the reaction. When tested, inhibitors were preincubated with the enzyme in reaction buffer for 2–5 min before starting the reaction by the addition of substrate. The path length (i.e., the height of the reaction medium inside the well) was calculated based on the reaction volume and the well cross-section area informed by the supplier. GraphPad Prism 7.0 (GraphPad Software Inc.) was used for function fitting.

membrane-bound rMpAOX [2] = molecular target: T1, membrane-bound rMpAOX; test: Dose-response assay of inhibitors with membrane-bound, GMP-activated rMpAOX (NADH oxidation); type: biochemical; settings: for Fractional velocity, % / activity at 0.025 µM / activity at 0.00025 µM / activity at 25 pM / activity at 0.25 µM / activity at 0.0025 µM: log[I]; for activity at 0.025 µM / activity at 0.00025 µM / activity at 25 pM / activity at 0.25 µM / activity at 0.0025 µM: read-out: Fractional velocity, %; for pIC50: membrane-bound, GMP-activated rMpAOX, read-out: IC50
Description: as §1, §2

T1 sequence (A8QJP8 entry or part of it): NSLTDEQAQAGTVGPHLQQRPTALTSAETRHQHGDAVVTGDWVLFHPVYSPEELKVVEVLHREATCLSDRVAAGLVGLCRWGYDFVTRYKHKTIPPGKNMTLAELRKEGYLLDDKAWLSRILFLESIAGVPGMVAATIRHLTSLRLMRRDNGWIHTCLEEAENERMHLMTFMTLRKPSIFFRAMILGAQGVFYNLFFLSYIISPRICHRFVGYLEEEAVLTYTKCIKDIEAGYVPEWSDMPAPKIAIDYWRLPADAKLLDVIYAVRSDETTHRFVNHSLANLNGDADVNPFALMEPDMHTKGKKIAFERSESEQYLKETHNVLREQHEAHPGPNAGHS

Row | Structure (SMILES) | Increase of membrane-bound rMpAOX oxygen uptake (membrane-bound rMpAOX [1]) | Fold-change in membrane-bound rMpAOX O2 uptake (membrane-bound rMpAOX [1]) | Fractional velocity, % (membrane-bound rMpAOX [2]; M -5.60206 (Fig2b), 2.5 µM) | Fractional velocity, % (membrane-bound rMpAOX [2]; M -6.60206 (Fig2b), 0.25 µM) | Fractional velocity, % (membrane-bound rMpAOX [2]; M -7.60206 (Fig2b), 0.025 µM) | activity at 0.025 µM (membrane-bound rMpAOX [2]; M -7.60206 (Fig2b)) [%] | Fractional velocity, % (membrane-bound rMpAOX [2]; M -8.60206 (Fig2b), 0.0025 µM) | Fractional velocity, % (membrane-bound rMpAOX [2]; M -9.60206 (Fig2b), 0.00025 µM) | activity at 0.00025 µM (membrane-bound rMpAOX [2]; M -9.60206 (Fig2b)) [%] | Fractional velocity, % (membrane-bound rMpAOX [2]; M -10.6021 (Fig2b), 25 pM) | activity at 25 pM (membrane-bound rMpAOX [2]; M -10.6021 (Fig2b)) [%] | pIC50 (membrane-bound rMpAOX [2]) | also measured
1 | Nc1ncnc2c1ncn2[C@@H]1O[C@H](COP(=O)(O)OP(=O)(O)O)[C@@H](O)[C@H]1O [ADP, 5′-ADP] | 4.5 times | 5 and 3.654 and 4.737 | – | – | – | – | – | – | – | – | – | – | Fractional velocity, % (membrane-bound rMpAOX [1]; [activator] 0.025 mM (Fig1b)): 29.9% and 27.8%; Fractional velocity, % (membrane-bound rMpAOX [1]; [activator] 0.075 mM (Fig1b)): 31.9% and 29.4%; Fractional velocity, % (membrane-bound rMpAOX [1]; [activator] 0.175 mM (Fig1b)): 33.7% and 32.1%; Fractional velocity, % (membrane-bound rMpAOX [1]; [activator] 0.375 mM (Fig1b)): 36.2% and 33.2%; Fractional velocity, % (membrane-bound rMpAOX [1]; [activator] 0.625 mM (Fig1b)): 46.5% and 35.2%; Fractional velocity, % (membrane-bound rMpAOX [1]; [activator] 1.625 mM (Fig1b)): 64.4% and 58.2%; Fractional velocity, % (membrane-bound rMpAOX [1]; [activator] 3.625 mM (Fig1b)): 97.7% and 79.7%; Fractional velocity, % (membrane-bound rMpAOX [1]; [activator] 6.125 mM (Fig1b)): 128.8% and 99.5%; pEC50 (membrane-bound rMpAOX [1]): ~2.19
2 | C/C(=C\Cc1c(O)c(Cl)c(C)c(C=O)c1O)CC/C=C(\C)[C@@H]1CC(=O)C(C)(C)O1 [AF, ascofuranone] | – | – | 3.068% and 1.958% and 7.541% | 2.9011% and 3.314% and 8.873% | 31.9402% and 19.7329% | 20.3 | 81.2456% and 95.1772% and 65.5719% | 94.8574% and 87.6342% | 88 | 94.1707% and 88.3377% | 93.1 | 8.06 | Fractional velocity, % (membrane-bound rMpAOX [2]; M -4.60206 (Fig2b), 25 µM): 3.958% and 2.609% and 7.671%
3 | Nc1ncnc2c1ncn2[C@@H]1O[C@H](COP(=O)(O)O)[C@@H](O)[C@H]1O [AMP, 5′-AMP] | 8.1 times | 7.569 and 7.49 and 9.2495 | – | – | – | – | – | – | – | – | – | – | Fractional velocity, % (membrane-bound rMpAOX [1]; [activator] 0.025 mM (Fig1b)): 22.2% and 18.4%; Fractional velocity, % (membrane-bound rMpAOX [1]; [activator] 0.075 mM (Fig1b)): 33.8% and 27.9%; Fractional velocity, % (membrane-bound rMpAOX [1]; [activator] 0.175 mM (Fig1b)): 53.8% and 45.3%; Fractional velocity, % (membrane-bound rMpAOX [1]; [activator] 0.375 mM (Fig1b)): 81.6% and 66.1%; Fractional velocity, % (membrane-bound rMpAOX [1]; [activator] 0.625 mM (Fig1b)): 102% and 87.9%; Fractional velocity, % (membrane-bound rMpAOX [1]; [activator] 1.125 mM (Fig1b)): 134.8% and 120.3%; Fractional velocity, % (membrane-bound rMpAOX [1]; [activator] 2.125 mM (Fig1b)): 172.4% and 157.6%; Fractional velocity, % (membrane-bound rMpAOX [1]; [activator] 4.125 mM (Fig1b)): 201.8% and 188.2%; Fractional velocity, % (membrane-bound rMpAOX [1]; [activator] 6.625 mM (Fig1b)): 199.8%; pEC50 (membrane-bound rMpAOX [1]): 3.04
4 | CC(C)=CCc1c(O)c(Cl)c(C)c(C=O)c1O [CD, colletochlorin D] | – | – | 6.725% and 4.7683% and 12.1201% | 26.8171% and 38.1389% | 83.3186% and 82.5195% | 81.9 | 98.2807% and 91.2399% | 94.0253% and 92.2465% | 98 | 93.9344% and 89.9529% | 94.5 | 6.94 | activity at 0.25 µM (membrane-bound rMpAOX [2]; M -6.60206 (Fig2b)): 28%; activity at 0.0025 µM (membrane-bound rMpAOX [2]; M -8.60206 (Fig2b)): 95.8%
5 | Nc1nc2c(ncn2[C@@H]2O[C@H](COP(=O)(O)OP(=O)(O)O)[C@@H](O)[C@H]2O)c(=O)[nH]1 [GDP, 5′-GDP] | did not have any noticeable effect; also recorded: no effect | 1.198 and 1.036 and 1.118 | – | – | – | – | – | – | – | – | – | – | Increase of rMpAOX basal rate (membrane-bound rMpAOX [1]; 6.5 mM): 1.5 times
6 | O=CC(=O)O [GLYOX, glyoxylate] | – | 0.6271 and 0.9309 and 0.7633 | – | – | – | – | – | – | – | – | – | – | –
7 | CCCCCCCCOC(=O)c1cc(O)c(O)c(O)c1 [OG, octyl gallate] | – | – | 37.6641% and 53.0018% and 32.2387% | 91.8565% and 76.0465% | 96.9123% and 87.3681% | 99 | 100.043% and 88.594% | 96.5387% and 94.2199% | 98 | 93.2034% and 90.1921% | 93.9 | 5.78 | Fractional velocity, % (membrane-bound rMpAOX [2]; M -4.60206 (Fig2b), 25 µM): 3.004% and 2.353% and 7.7435%; activity at 0.25 µM (membrane-bound rMpAOX [2]; M -6.60206 (Fig2b)): 92.7%; activity at 0.0025 µM (membrane-bound rMpAOX [2]; M -8.60206 (Fig2b)): 98.8%

— PMC7248098, “Biochemical characterization and inhibition of the alternative oxidase enzyme from the fungal phytopathogen Moniliophthora perniciosa” (Communications Biology, 2020)
